The test system of test [1] is 4-analyte M-DP panel (CRP, CXCL10, CXCL13, SAA). Put plainly: Pharmacodynamic M-DP score, 4-analyte panel CRP, CXCL10, CXCL13, SAA (SOMAscan), clinical studies in RA. In kind it is in vivo, human. An excerpt: (§1) Serum samples and data from eight interventional clinical studies with seven different active treatments for RA or placebo treatment were obtained and analyzed: sirukumab (anti-IL-6) and placebo treatments in SIRROUND-M (NCT01689532; Takeuchi T, et al. Arthritis Res Ther. 2018 Mar. 7; 20(1): 42), SIRROUND-D (NCT01604343; Takeuchi T, et al. Ann Rheum Dis. 2017 Dec.; 76(12): 2001-2008), and SIRROUND-T (NCT01606761; Aletaha D, et al. Lancet. 2017 Mar. 25; 389(10075): 1206-1217); sirukumab and adalimumab (anti-TNF-alpha) treatments in SIRROUND-H (NCT02019472; Taylor PC, et al. Ann Rheum Dis. 2018 May; 77(5): 658-666); golimumab (anti-TNF-alpha) treatment in GO-FURTHER (NCT00973479; Weinblatt ME, et al. Ann Rheum Dis. 2013 March; 72(3): 381-9); guselkumab (anti-IL-23p19), ustekinumab (anti-IL-12/IL-23p40), and placebo treatments in CNTO1275ARA2001 (NCT01645280; Cox JD, et al. […]); JNJ-40346527 (colony-stimulating factor-1 inhibitor) and placebo treatments in 40346527ARA2001 (NCT01597739; Genovese MC, et al. J Rheumatol. 2015 October; 42(10): 1752-60). Plasma samples were obtained from the RA-MAP TACERA study (Cope AP, et al. Nat Rev Rheumatol. 2018 January; 14(1): 53-60) before (baseline) and 6-months after initiation of conventional synthetic disease-modifying anti-rheumatic drugs (csDMARDs). Details of treatment dose groups, concomitant methotrexate use, and previous experience with csDMARDs and biologics are reported in Table 1. The studies were conducted in accordance with the Declaration of Helsinki. The study protocols were reviewed and approved by an independent ethics committee or institutional review board for each study center. Written informed consent was obtained from all patients before study entry. Additional study details and patient characteristics are available in the referenced publications for each study. For SIRROUND-D and SIRROUND-T studies, sets of serum samples from demographically-matched healthy controls were obtained from commercial sources (BioIVT, Westbury, N.Y.).
(§2) Serum samples from baseline (week 0) and the time points indicated in Table 1 were provided for quantification of 1189 serum analytes using the SomaScan v3.1 platform (SomaLogic, Boulder, Colo.; www.somalogic.com), with the exception of RA-MAP TACERA, for which plasma samples were analyzed for 1301 analytes using the SomaScan v3.2 platform. For some studies, a redacted dataset reporting data for a subset of the analytes was obtained. Relative fluorescence unit (RFU) data were sequentially normalized for hybridization controls (internal standards per samples), median signal across all samples (assumes same total protein concentration across sample set), and calibration controls (common sample standards across analysis plates). Samples failed quality control standards defined by Somalogic were excluded from analyses. The normalized RFU values were log2-transformed for subsequent analyses.
(§3) Changes in analyte expression levels were calculated for individual samples as the log2 transform of the ratio of the analyte level at the indicated time point (visit level) over the analyte level at baseline (baseline level) for a given subject, i.e., log 2(visit level/baseline level). Changes in RA disease-associated analytes per sample were summarized using a pharmacodynamic (PD) molecular disease profile (M-DP) score, defined as the median value of the log 2(visit level/baseline level) values for analytes in the defined M-DP analyte set. […] PD M-DP scores in the log 2(visit level/baseline level) scale can be transformed to percent change from baseline, using the transformation: (2^M-DP score−1)×100%.
In selecting the best minimal set of analytes that performs similarly to the full 14-analyte set, analyte sets that results in significant associations between DAS28-CRP EULAR good vs. no response with p<0.05 for each study were prioritized (Table 4). […]

The subject of the next test is RA patients. The note with it: RA patients; cited from earlier work.
Another test deals with 14-analyte M-DP panel. The experiment in a line: Pharmacodynamic M-DP score, 14-analyte panel (SomaLogic SOMAscan), clinical studies in RA. In kind it is in vivo, human.
From the text: as §1, §2, §3
Statistical analyses were performed on log2-transformed data, for either normalized Relative fluorescence unit (RFU) datasets or within-subject fold/baseline datasets. Significance of differences between groups was evaluated using General Linear Models, with t-tests when comparing two groups. […]

Where [2] appears, read: 4-analyte, 40346527ARA2001, score at week 4, oral 100 mg BID, response at week 12.
Setting [3] is: 4-analyte, 40346527ARA2001, score at week 12, oral 100 mg BID, response at week 12.
[4] abbreviates: 40346527ARA2001, score at week 4, oral 100 mg BID, response at week 12.
The mark [5] stands for this setting: 40346527ARA2001, score at week 12, oral 100 mg BID, response at week 12.
Setting [6] is: 4-analyte, SIRROUND-H, score at week 4, sirukumab SC 50 mg q4w or adalimumab SC 40 mg q2w, response at week 24.
Where [7] appears, read: SIRROUND-H, score at week 4, sirukumab SC 50 mg q4w or adalimumab SC 40 mg q2w, response at week 24.
The mark [8] stands for this setting: 4-analyte, GO-FURTHER, score at week 14, golimumab IV 2 mg/kg, response at week 24.
The mark [9] stands for this setting: GO-FURTHER, score at week 14, golimumab IV 2 mg/kg, response at week 24.

As to `CC1(C)CC=C(c2nc(C3CC(C)(C)OC(C)(C)C3)ccc2NC(=O)c2nc(C#N)c[nH]2)CC1` [JNJ-40346527, reference compound], the “M-DP score mean ± SD, All treated” value in test [1] (4-analyte, 40346527ARA2001, score at week 4, oral 100 mg BID) was −0.03 ± 0.49 log2 (fold/baseline); in test [1] (4-analyte, 40346527ARA2001, score at week 12, oral 100 mg BID) it was −0.01 ± 0.56 log2 (fold/baseline); with 14-analyte M-DP panel (40346527ARA2001, score at week 4, oral 100 mg BID) it was −0.08 ± 0.27 log2 (fold/baseline); in the test with 14-analyte M-DP panel (40346527ARA2001, score at week 12, oral 100 mg BID), −0.13 ± 0.33 log2 (fold/baseline). Moreover, the “M-DP score mean difference ± SD, Good vs. No” value is listed as 0.34 ± 0.52 (0.1581) log2 (fold/baseline) in test [1] (setting [2]), −0.68 ± 0.52 (0.0079) log2 (fold/baseline) in test [1] (setting [3]) and 0.08 ± 0.52 log2 (fold/baseline) with 14-analyte M-DP panel (setting [4]). Also, the “M-DP score mean ± SD, DAS28-CRP response group Good” value in test [1] (setting [2]) is recorded as −0.29 ± 0.42 log2 (fold/baseline); in test [1] (setting [3]) it was −0.50 ± 0.61 log2 (fold/baseline); in the test with 14-analyte M-DP panel (setting [4]), 0.29 ± 0.42 log2 (fold/baseline); in the test on 14-analyte M-DP panel (setting [5]), −0.50 ± 0.61 log2 (fold/baseline). For the same molecule, the “M-DP score mean ± SD, DAS28-CRP response group Moderate” value is given as −0.05 ± 0.48 log2 (fold/baseline) in test [1] (setting [2]), −0.07 ± 0.55 log2 (fold/baseline) in test [1] (setting [3]), −0.05 ± 0.48 log2 (fold/baseline) in the test on 14-analyte M-DP panel (setting [4]) and −0.07 ± 0.55 log2 (fold/baseline) in the test on 14-analyte M-DP panel (setting [5]). Moreover, the “M-DP score mean ± SD, DAS28-CRP response group No” value was −0.09 ± 0.54 log2 (fold/baseline) in test [1] (setting [2]), 0.18 ± 0.50 log2 (fold/baseline) in test [1] (setting [3]), −0.09 ± 0.54 [23] log2 (fold/baseline) with 14-analyte M-DP panel (setting [4]) and 0.18 ± 0.50 [22] log2 (fold/baseline) in the test on 14-analyte M-DP panel (setting [5]). The “clinical efficacy in the underlying clinical studies” value in the test with RA patients is reported as “not clinically efficacious”. The “GMean M-DP scores, change” value in the test with 14-analyte M-DP panel (week 4 or latest time point evaluated (weeks 28, 28, and 12, respectively)) is recorded as “not decreased”.

Regarding adalimumab [reference compound], the “M-DP score mean ± SD, All treated” value is reported as −0.43 ± 0.53 log2 (fold/baseline) in test [1] (4-analyte, SIRROUND-H, score at week 4, sirukumab SC 50 mg q4w or adalimumab SC 40 mg q2w) and −0.18 ± 0.33 log2 (fold/baseline) with 14-analyte M-DP panel (SIRROUND-H, score at week 4, sirukumab SC 50 mg q4w or adalimumab SC 40 mg q2w). Also, the “M-DP score mean difference ± SD, Good vs. No” value in test [1] (setting [6]) is −0.29 ± 0.45 (0.0217) log2 (fold/baseline); with 14-analyte M-DP panel (setting [7]) it was −0.06 ± 0.33 log2 (fold/baseline). In addition, the “M-DP score mean ± SD, DAS28-CRP response group Good” value in test [1] (setting [6]) was −0.58 ± 0.50 log2 (fold/baseline); in the test with 14-analyte M-DP panel (setting [7]), −0.22 ± 0.37 log2 (fold/baseline). Further, the results for the “M-DP score mean ± SD, DAS28-CRP response group Moderate” value (in test [1] (setting [6]); in the test on 14-analyte M-DP panel (setting [7])) were −0.39 ± 0.59 log2 (fold/baseline) and −0.17 ± 0.33 log2 (fold/baseline), respectively. In addition, the “M-DP score mean ± SD, DAS28-CRP response group No” value in test [1] (setting [6]) was −0.29 ± 0.37 log2 (fold/baseline); in the test on 14-analyte M-DP panel (setting [7]), −0.14 ± 0.26 [23] * log2 (fold/baseline). Moreover, the M-DP score decrease in test [1] (4-analyte, adalimumab, week 4) stood at 26%; in the test on 14-analyte M-DP panel (SIRROUND-H, 4-week treatment, adalimumab SC 40 mg q2w) it was 12%. Besides, the “M-DP score effect size (decrease below zero)” value in test [1] (4-analyte, week 4) was determined as 0.8 standard deviations.

In the case of golimumab [reference compound], the “M-DP score mean ± SD, All treated” value in test [1] (4-analyte, GO-FURTHER, score at week 14, golimumab IV 2 mg/kg weeks 0, 4, then q8w plus methotrexate) was −0.94 ± 0.63 log2 (fold/baseline). Also, in test [1] (setting [8]), the “M-DP score mean difference ± SD, Good vs. No” value is listed as −0.56 ± 0.55 (0.0003) log2 (fold/baseline); the “M-DP score mean ± SD, DAS28-CRP response group Good” value was −1.13 ± 0.61 log2 (fold/baseline); the “M-DP score mean ± SD, DAS28-CRP response group Moderate” value is −0.94 ± 0.68 log2 (fold/baseline); the “M-DP score mean ± SD, DAS28-CRP response group No” value is −0.57 ± 0.43 log2 (fold/baseline). In test [1] (golimumab treatment data), the “M-DP score decrease, good response subgroup” value worked out at 54% and the “M-DP score decrease, no response subgroup” value worked out at 33%. Further, the “clinical efficacy in the underlying clinical studies” value in the test on RA patients is “clinically efficacious”. This molecule also gave a M-DP score decrease in the test with 14-analyte M-DP panel (GO-FURTHER, 14-weeks treatment, golimumab IV) of 26%. In addition, the “M-DP score mean ± SD, All treated” value with 14-analyte M-DP panel (GO-FURTHER, score at week 14, golimumab IV 2 mg/kg weeks 0, 4, then q8w plus methotrexate) is −0.44 ± 0.37 log2 (fold/baseline). Further, in the test with 14-analyte M-DP panel (setting [9]), the “M-DP score mean difference ± SD, Good vs. No” value is −0.35 ± 0.35 log2 (fold/baseline); the “M-DP score mean ± SD, DAS28-CRP response group Good” value is on record as −0.56 ± 0.39 log2 (fold/baseline); the “M-DP score mean ± SD, DAS28-CRP response group Moderate” value is reported as −0.45 ± 0.34 log2 (fold/baseline); the “M-DP score mean ± SD, DAS28-CRP response group No” value was −0.21 ± 0.27 [22] * log2 (fold/baseline).

Values taken from patent US20230243822A1, “MOLECULAR DISEASE PROFILE AND USE THEREOF FOR MONITORING AND TREATING RHEUMATAOID ARTHRITIS” (JANSSEN BIOTECH, INC., priority 2020, published 2023).
